These results are taken from US7135467B2, “HIV integrase inhibitors” (priority 2003, dated 2006).

Structures are written as SMILES.

The test concerns the target T1, HIV-integrase (recombinant integrase) (Human immunodeficiency virus type 1 group M subtype B, UniProt P12497).
T1 construct: Recombinant integrase (0.26 ng) was incubated with the beads
Kind of test: HIV-Integrase Inhibition Activity (SPA bead strand-transfer assay). The test is classed as biochemical. As to conditions: recombinant integrase on biotin labeled substrate DNA/SPA beads, P33 labeled target DNA; read-out: Activity (IC50 against HIV-integrase). The procedure:
To evaluate in-vitro activity against HIV-integrase, 5 pmole of biotin labeled substrate DNA was bound to 100 μg of Streptavidin coated PVT SPA beads (Amersham Pharmacia Biotech). Recombinant integrase (0.26 ng) was incubated with the beads for 90 min at 37° C. Unbound enzyme was removed by washing the complex followed by addition of inhibitors and 0.1 fmol of P33 labeled target DNA. The reaction was stopped by adding EDTA to a final concentration of 10 mM. Samples were counted in TopCountNXT (Packard) and the CPM was used as a measure of integration. The reaction condition was as described in A. Engelman and R. Craigie, J. Virol. 69, 5908–5911 (1995). The sequences of substrate and target DNA were described in Nucleic Acid Research 22, 1121–1122 (1994). Activity equal to A refers to a compound having IC50=0.003 to 0.10 μM while B and C denote compounds the following IC50=0.1 to 1.0 μM and IC50≧1.0 μM respectively.
Broadly, the IC50 is the concentration at which inhibition is half-maximal. With `Cn1c(N2CCN(CCO)CC2)nc(C(=O)NCc2ccc(F)cc2)c(O)c1=O` [Compound 67, N-[(4-fluorophenyl)methyl]-1,6-dihydro-5-hydroxy-2-[4-(2-hydroxyethyl)-1-piperazinyl]-1-methyl-6-oxo-4-pyrimidinecarboxamide], the IC50 fell in the range of 3 to 100 nM.
The figure for `Cc1cc(CNC(=O)c2nc(N3CCN(CCO)CC3)n(C)c(=O)c2O)ccc1F` [Compound 68, N-[(4-fluoro-3-methylphenyl)methyl]-1,6-dihydro-5-hydroxy-2-[4-(2-hydroxyethyl)-1-piperazinyl]-1-methyl-6-oxo-4-pyrimidinecarboxamide] is 3 to 100 nM.
As to `Cn1c(N2CCNCC2)nc(C(=O)NCc2ccc(F)cc2)c(O)c1=O` [Compound 69, N-[(4-fluorophenyl)methyl]-1,6-dihydro-5-hydroxy-1-methyl-6-oxo-2-(1-piperazinyl)-4-pyrimidinecarboxamide], the IC50 was 100 to 1000 nM.
The result for `Cc1cc(CNC(=O)c2nc(N3CCNCC3)n(C)c(=O)c2O)ccc1F` [Compound 70, N-[(4-fluoro-3-methylphenyl)methyl]-1,6-dihydro-5-hydroxy-1-methyl-6-oxo-2-(1-piperazinyl)-4-pyrimidinecarboxamide] reads 3 to 100 nM; that for `CC(=O)N1CCN(c2nc(C(=O)NCc3ccc(F)cc3)c(O)c(=O)n2C)CC1` [Compound 71, 2-(4-acetyl-1-piperazinyl)-N-[(4-fluorophenyl)methyl]-1,6-dihydro-5-hydroxy-1-methyl-6-oxo-4-pyrimidinecarboxamide], 3 to 100 nM.
Consider `CC(=O)N1CCN(c2nc(C(=O)NCc3ccc(F)c(C)c3)c(O)c(=O)n2C)CC1` [Compound 72, 2-(4-acetyl-1-piperazinyl)-N-[(4-fluoro-3-methylphenyl)methyl]-1,6-dihydro-5-hydroxy-1-methyl-6-oxo-4-pyrimidinecarboxamide], for which the IC50 is 3 to 100 nM.
The figure for `CCCN1CCN(c2nc(C(=O)NCc3ccc(F)cc3)c(O)c(=O)n2C)CC1` [Compound 73, N-[(4-fluorophenyl)methyl]-1,6-dihydro-5-hydroxy-1-methyl-6-oxo-2-(4-propyl-1-piperazinyl)-4-pyrimidinecarboxamide] is 3 to 100 nM; for `CCCN1CCN(c2nc(C(=O)NCc3ccc(F)c(C)c3)c(O)c(=O)n2C)CC1` [Compound 74, N-[(4-fluoro-3-methylphenyl)methyl]-1,6-dihydro-5-hydroxy-1-methyl-6-oxo-2-(4-propyl-1-piperazinyl)-4-pyrimidinecarboxamide] it is 3 to 100 nM.
In the case of `Cn1c(N2CCN(c3ccccn3)CC2)nc(C(=O)NCc2ccc(F)cc2)c(O)c1=O` [Compound 75, N-[(4-fluorophenyl)methyl]-1,6-dihydro-5-hydroxy-1-methyl-6-oxo-2-[4-(2-pyridinyl)-1-piperazinyl]-4-pyrimidinecarboxamide], the IC50 was 3 to 100 nM.
Turning to `Cc1cc(CNC(=O)c2nc(N3CCN(c4ccccn4)CC3)n(C)c(=O)c2O)ccc1F` [Compound 76, N-[(4-fluoro-3-methylphenyl)methyl]-1,6-dihydro-5-hydroxy-1-methyl-6-oxo-2-[4-(2-pyridinyl)-1-piperazinyl]-4-pyrimidinecarboxamide], the IC50 is 3 to 100 nM.
The result for `Cn1c(N2CCN(c3ncccn3)CC2)nc(C(=O)NCc2ccc(F)cc2)c(O)c1=O` [Compound 77, N-[(4-fluorophenyl)methyl]-1,6-dihydro-5-hydroxy-1-methyl-6-oxo-2-[4-(2-pyrimidinyl)-1-piperazinyl]-4-pyrimidinecarboxamide] reads 3 to 100 nM; that for `Cc1cc(CNC(=O)c2nc(N3CCN(c4ncccn4)CC3)n(C)c(=O)c2O)ccc1F` [Compound 78, N-[(4-fluoro-3-methylphenyl)methyl]-1,6-dihydro-5-hydroxy-1-methyl-6-oxo-2-[4-(2-pyrimidinyl)-1-piperazinyl]-4-pyrimidinecarboxamide], 3 to 100 nM; that for `Cn1c(N2CCN(c3ccccc3)CC2)nc(C(=O)NCc2ccc(F)cc2)c(O)c1=O` [Compound 79, N-[(4-fluorophenyl)methyl]-1,6-dihydro-5-hydroxy-1-methyl-6-oxo-2-(4-phenyl-1-piperazinyl)-4-pyrimidinecarboxamide], 3 to 100 nM.
The result for `Cc1cc(CNC(=O)c2nc(N3CCN(c4ccccc4)CC3)n(C)c(=O)c2O)ccc1F` [Compound 80, N-[(4-fluoro-3-methylphenyl)methyl]-1,6-dihydro-5-hydroxy-1-methyl-6-oxo-2-(4-phenyl-1-piperazinyl)-4-pyrimidinecarboxamide] reads 3 to 100 nM; that for `Cn1c(N2CCN(C(=O)N3CCNC3=O)CC2)nc(C(=O)NCc2ccc(F)cc2)c(O)c1=O` [Compound 85, N-[(4-fluorophenyl)methyl]-1,6-dihydro-5-hydroxy-1-methyl-6-oxo-2-[4-[(2-oxo-1-imidazolidinyl)carbonyl]-1-piperazinyl]-4-pyrimidinecarboxamide], 3 to 100 nM.
The figure for `Cc1cc(CNC(=O)c2nc(N3CCN(C(=O)N4CCNC4=O)CC3)n(C)c(=O)c2O)ccc1F` [Compound 86, N-[(4-fluoro-3-methylphenyl)methyl]-1,6-dihydro-5-hydroxy-1-methyl-6-oxo-2-[4-[(2-oxo-1-imidazolidinyl)carbonyl]-1-piperazinyl]-4-pyrimidinecarboxamide] is 3 to 100 nM.
For `CNC(=O)N1CCN(c2nc(C(=O)NCc3ccc(F)cc3)c(O)c(=O)n2C)CC1` [Compound 87, N-[(4-fluorophenyl)methyl]-1,6-dihydro-5-hydroxy-1-methyl-2-[4-[(methylamino)carbonyl]-1-piperazinyl]-6-oxo-4-pyrimidinecarboxamide], the IC50 is 3 to 100 nM.
The result for `CNC(=O)N1CCN(c2nc(C(=O)NCc3ccc(F)c(C)c3)c(O)c(=O)n2C)CC1` [Compound 88, N-[(4-fluoro-3-methylphenyl)methyl]-1,6-dihydro-5-hydroxy-1-methyl-2-[4-[(methylamino)carbonyl]-1-piperazinyl]-6-oxo-4-pyrimidinecarboxamide] reads 3 to 100 nM; that for `Cn1c(N2CCCC2)nc(C(=O)NCc2ccc(F)cc2)c(O)c1=O` [Compound 91, N-[(4-fluorophenyl)methyl]-1,6-dihydro-5-hydroxy-1-methyl-6-oxo-2-(1-pyrrolidinyl)-4-pyrimidinecarboxamide], 3 to 100 nM.
Regarding `Cn1c(N2CCC2)nc(C(=O)NCc2ccc(F)cc2)c(O)c1=O` [Compound 92, 2-(1-azetidinyl)-N-[(4-fluorophenyl)methyl]-1,6-dihydro-5-hydroxy-1-methyl-6-oxo-4-pyrimidinecarboxamide], the IC50 lay in the range of 3 to 100 nM.
The result for `Cc1cc(CNC(=O)c2nc(N3CCC3)n(C)c(=O)c2O)ccc1F` [Compound 93, 2-(1-azetidinyl)-N-[(4-fluoro-3-methylphenyl)methyl]-1,6-dihydro-5-hydroxy-1-methyl-6-oxo-4-pyrimidinecarboxamide] reads 3 to 100 nM; that for `Cn1c(N2CCC(C(N)=O)CC2)nc(C(=O)NCc2ccc(F)cc2)c(O)c1=O` [Compound 94, 2-[4-(aminocarbonyl)-1-piperidinyl]-N-[(4-fluorophenyl)methyl]-1,6-dihydro-5-hydroxy-1-methyl-6-oxo-4-pyrimidinecarboxamide], 3 to 100 nM; that for `Cn1c(N2CCC[C@H]2C(N)=O)nc(C(=O)NCc2ccc(F)cc2)c(O)c1=O` [Compound 95, 2-[(2S)-2-(aminocarbonyl)-1-pyrrolidinyl]-N-[(4-fluorophenyl)methyl]-1,6-dihydro-5-hydroxy-1-methyl-6-oxo-4-pyrimidinecarboxamide], 3 to 100 nM.
Consider `Cn1c(N2CCCCC2CO)nc(C(=O)NCc2ccc(F)cc2)c(O)c1=O` (centres unmarked) [Compound 96, 4-pyrimidineN-[(4-fluorophenyl)methyl]-1,6-dihydro-5-hydroxy-2-[2-(hydroxymethyl)-1-piperidinyl]-1-methyl-6-oxo-carboxamide], for which the IC50 lay in the range of 100 to 1000 nM.
The result for `Cc1cc(CNC(=O)c2nc(N3CCCCC3CO)n(C)c(=O)c2O)ccc1F` (centres unmarked) [Compound 97, N-[(4-fluoro-3-methylphenyl)methyl]-1,6-dihydro-5-hydroxy-2-[2-(hydroxymethyl)-1-piperidinyl]-1-methyl-6-oxo-4-pyrimidinecarboxamide] reads 3 to 100 nM; that for `Cn1c(N2CCCCC2CCO)nc(C(=O)NCc2ccc(F)cc2)c(O)c1=O` (centres unmarked) [Compound 98, N-[(4-fluorophenyl)methyl]-1,6-dihydro-5-hydroxy-2-[2-(2-hydroxyethyl)-1-piperidinyl]-1-methyl-6-oxo-4-pyrimidinecarboxamide], 3 to 100 nM.
On to `Cc1cc(CNC(=O)c2nc(N3CCCCC3CCO)n(C)c(=O)c2O)ccc1F` (centres unmarked) [Compound 99, N-[(4-fluoro-3-methylphenyl)methyl]-1,6-dihydro-5-hydroxy-2-[2-(2-hydroxyethyl)-1-piperidinyl]-1-methyl-6-oxo-4-pyrimidinecarboxamide], for which the IC50 was in the range of 3 to 100 nM.
The figure for `Cn1c(-n2ncccc2=O)nc(C(=O)NCc2ccc(F)cc2)c(O)c1=O` [Compound 100, N-[(4-fluorophenyl)methyl]-1,6-dihydro-5-hydroxy-1-methyl-6-oxo-2-(6-oxo-1(6H)-pyridazinyl)-4-pyrimidinecarboxamide] is 100 to 1000 nM; for `Cc1cc(CNC(=O)c2nc(-n3ncccc3=O)n(C)c(=O)c2O)ccc1F` [Compound 101, N-[(4-fluoro-3-methylphenyl)methyl]-1,6-dihydro-5-hydroxy-1-methyl-6-oxo-2-(6-oxo-1(6H)-pyridazinyl)-4-pyrimidinecarboxamide] it is 3 to 100 nM.
